In the supplement of paper PMC11061612:

Key:
[1] = compound: CC1=CN2[C@@H](C1)C=NC3=CC(=C(C=C3C2=O)OC)OCCCCCOC4=C(C=C5C(=C4)N=C[C@@H]6CC(=CN6C5=O)C)OC [SG3199]; conditions: max 0.001 µM
In short: (§1)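 Following 24 hours at 37°C and 5% CO2, cancer cell lines in 1536-well plates with 7.5 μl DMEM/F12 or RPMI and 10% FBS were dosed for 72 hours, final DMSO typically being 0.2%. CellTiter-Glo 2.0 luminescence, scaled between blank-well and DMSO-well means, gave the viability readout. Dose responses were fitted to a two-parameter logistic curve with a non-linear mixed effects model, and the single-agent IC50 was derived from this fit.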

[2] = compound: NC1(c2ccc(-c3nc4ccn5c(=O)[nH]nc5c4cc3-c3ccccc3)cc2)CCC1 [MK-2206]; conditions: max 10 µM
In short: as §1

[3] = compound: Cc1c2c(nn1C)CSCc1cc(n(C)n1)CSc1cc(c3ccccc3c1)OCCCc1c(C(=O)O)n(C)c3c-2c(Cl)ccc13 [AZD5991]; conditions: max 1 µM
In short: as §1

[4] = compound: Cc1cc2ncnn2cc1Nc1ncc2c(n1)n(C1CCOCC1)c(=O)n2C [AZD7648]; conditions: max 10 µM
In short: as §1

[5] = compound: CC1=C(C(=CC=C1)Cl)NC(=O)C2=CN=C(S2)NC3=CC(=NC(=N3)C)N4CCN(CC4)CCO [Dasatinib]; conditions: max 2 µM
In short: as §1

[6] = compound: O=c1[nH]cc(F)c(=O)[nH]1 [5-Fluorouracil]; conditions: max 20 µM
In short: as §1

[7] = compound: CC(C)n1c(=O)n(C)c2cnc3cc(F)c(-c4ccc(OCCCN5CCCCC5)nc4)cc3c21 [AZD1390]; conditions: max 0.3 µM
In short: as §1

[8] = compound: COc1cc([C@@H]2c3cc4c(cc3[C@@H](O[C@@H]3O[C@@H]5CO[C@@H](C)O[C@H]5[C@H](O)[C@H]3O)[C@H]3COC(=O)[C@H]23)OCO4)cc(OC)c1O [Etoposide]; conditions: max 10 µM
In short: as §1

[9] = compound: COc1nnc2ccc(N3CCC(c4ccc(OCCN5CCN(C)C(=O)[C@H]5C)cc4)CC3)nn12 [AZD5153]; conditions: max 1 µM
In short: as §1

[10] = compound: CC1(C)CCC(CN2CCN(c3ccc(C(=O)NS(=O)(=O)c4ccc(NCC5CCOCC5)c([N+](=O)[O-])c4)c(Oc4cnc5[nH]ccc5c4)c3)CC2)=C(c2ccc(Cl)cc2)C1 [Venetoclax]; conditions: max 1 µM
In short: as §1

[11] = compound: CC(=O)O[C@H]1C(=O)[C@@]2(C)[C@H]([C@H](OC(=O)c3ccccc3)[C@]3(O)C[C@H](OC(=O)[C@H](O)[C@@H](NC(=O)c4ccccc4)c4ccccc4)C(C)=C1C3(C)C)[C@]1(OC(C)=O)CO[C@@H]1C[C@@H]2O [Paclitaxel]; conditions: max 3 µM
In short: as §1

[12] = compound: COc1cccc2c1C(=O)c1c(O)c3c(c(O)c1C2=O)C[C@@](O)(C(=O)CO)C[C@@H]3O[C@H]1C[C@H](N)[C@H](O)[C@H](C)O1 [Doxorubicin]; conditions: max 1 µM
In short: as §1

[13] = compound: CCN(CCO)CCCOc1ccc2c(Nc3cc(CC(=O)Nc4cccc(F)c4)[nH]n3)ncnc2c1 [AZD2811]; conditions: max 1 µM
In short: as §1

[14] = compound: C[C@@H](Nc1cc(F)cc(F)c1)c1cc(C(=O)N(C)C)cc2c(=O)cc(N3CCOCC3)oc12 [AZD8186]; conditions: max 10 µM
In short: as §1

[15] = compound: COc1cccc(OCCCN)c1-c1cc(Nc2cnc(C#N)cn2)n[nH]1 [Prexasertib]; conditions: max 1 µM
In short: as §1

[16] = compound: C[C@@H]1COCCN1C2=NC(=NC(=C2)C3(CC3)[S@](=N)(=O)C)C4=C5C=CNC5=NC=C4 [AZD6738]; conditions: max 10 µM
In short: as §1

[17] = compound: Cc1nc(-c2cn3c(n2)-c2ccc(-c4cnn(C(C)(C)C(N)=O)c4)cc2OCC3)n(C(C)C)n1 [Taselisib]; conditions: max 10 µM
In short: as §1

[18] = compound: C[C@@H](Oc1cc(-c2cnn(C3CCNCC3)c2)cnc1N)c1c(Cl)ccc(F)c1Cl [Crizotinib]; conditions: max 10 µM
In short: as §1

[19] = compound: CN(C)CCCOc1ccc(-c2ccc3ncc4c(c3c2)n(C2CCOCC2)c(=O)n4C)cn1 [AZD0156]; conditions: max 3 µM
In short: as §1

[20] = compound: C=CCn1c(=O)c2cnc(Nc3ccc(N4CCN(C)CC4)cc3)nc2n1-c1cccc(C(C)(C)O)n1 [AZD1775]; conditions: max 3 µM
In short: as §1

[21] = compound: Cn1cnc2c(F)c(Nc3ccc(Br)cc3Cl)c(C(=O)NOCCO)cc21 [Selumetinib]; conditions: max 10 µM
In short: as §1

[22] = compound: COc1cc2ncnc(Nc3ccc(F)c(Cl)c3)c2cc1OCCCN1CCOCC1 [Gefitinib]; conditions: max 10 µM
In short: as §1

[23] = compound: O=C(Nc1ccc2[nH]nc(-c3ccncc3)c2c1)[C@@H]1CCN(CC(=O)N2CCN(c3ccc(-c4ncccn4)cc3)CC2)C1; conditions: max 5 µM
In short: as §1

[24] = compound: C[C@@H](c1ccc2nccn2c1)n1nnc2ncc(-c3cnn(C)c3)nc21 [Savolitinib]; conditions: max 1 µM
In short: as §1

[25] = compound: N#Cc1cnc(Nc2cc(NC[C@H]3CNCCO3)c(C(F)(F)F)cn2)cn1 [SRA737]; conditions: max 10 µM
In short: as §1

[26] = compound: O=C(c1cc(Cc2n[nH]c(=O)c3ccccc23)ccc1F)N1CCN(C(=O)C2CC2)CC1 [Olaparib]; conditions: max 10 µM
In short: as §1

[27] = compound: CCc1c2c(nc3ccc(O)cc13)-c1cc3c(c(=O)n1C2)COC(=O)[C@]3(O)CC [SN-38]; conditions: max 0.3 µM
In short: as §1

[28] = compound: COc1cc(Nc2ncc3c(n2)-c2ccc(Cl)cc2C(c2c(F)cccc2OC)=NC3)ccc1C(=O)O [Alisertib]; conditions: max 10 µM
In short: as §1

[29] = compound: Nc1ccn([C@@H]2O[C@H](CO)[C@@H](O)C2(F)F)c(=O)n1 [Gemcitabine]; conditions: max 0.3 µM
In short: as §1

[30] = compound: C1CN(CCC1(C(=O)N[C@@H](CCO)C2=CC=C(C=C2)Cl)N)C3=NC=NC4=C3C=CN4 [AZD5363]; conditions: max 10 µM
In short: as §1

[31] = compound: CC(=O)c1c(C)c2cnc(Nc3ccc(N4CCNCC4)cn3)nc2n(C2CCCC2)c1=O [Palbociclib]; conditions: max 10 µM
In short: as §1

[32] = compound: CN(CC[C@H](CSC1=CC=CC=C1)NC2=C(C=C(C=C2)S(=O)(=O)NC(=O)C3=CC=C(C=C3)N4CCC(CC4)[C@H](C5=CC=CC=C5C6=CC=C(C=C6)Cl)O)S(=O)(=O)C(F)(F)F)CCO [AZD4320]; conditions: max 1 µM
In short: as §1

[33] = compound: CS(=O)(=O)CCNCc1ccc(-c2ccc3ncnc(Nc4ccc(OCc5cccc(F)c5)c(Cl)c4)c3c2)o1 [Lapatinib]; conditions: max 10 µM
In short: as §1

[34] = compound: C1CC(C1)(C(=O)[O-])C(=O)[O-].N.N.[Pt+2] [Carboplatin]; conditions: max 10 µM
In short: as §1

[35] = compound: CC(=O)Nc1cccc(-n2c(=O)n(C3CC3)c(=O)c3c(Nc4ccc(I)cc4F)n(C)c(=O)c(C)c32)c1 [Trametinib]; conditions: max 1 µM
In short: as §1

Cell Line	IC50, cell viability 72 h [1] [µM]	IC50, cell viability 72 h [2] [µM]	IC50, cell viability 72 h [3] [µM]	IC50, cell viability 72 h [4] [µM]	IC50, cell viability 72 h [5] [µM]	IC50, cell viability 72 h [6] [µM]	IC50, cell viability 72 h [7] [µM]	IC50, cell viability 72 h [8] [µM]	IC50, cell viability 72 h [9] [µM]	IC50, cell viability 72 h [10] [µM]	IC50, cell viability 72 h [11] [µM]	IC50, cell viability 72 h [12] [µM]	IC50, cell viability 72 h [13] [µM]	IC50, cell viability 72 h [14] [µM]	IC50, cell viability 72 h [15] [µM]	IC50, cell viability 72 h [16] [µM]	IC50, cell viability 72 h [17] [µM]	IC50, cell viability 72 h [18] [µM]	IC50, cell viability 72 h [19] [µM]	IC50, cell viability 72 h [20] [µM]	IC50, cell viability 72 h [21] [µM]	IC50, cell viability 72 h [22] [µM]	IC50, cell viability 72 h [23] [µM]	IC50, cell viability 72 h [24] [µM]	IC50, cell viability 72 h [25] [µM]	IC50, cell viability 72 h [26] [µM]	IC50, cell viability 72 h [27] [µM]	IC50, cell viability 72 h [28] [µM]	IC50, cell viability 72 h [29] [µM]	IC50, cell viability 72 h [30] [µM]	IC50, cell viability 72 h [31] [µM]	IC50, cell viability 72 h [32] [µM]	IC50, cell viability 72 h [33] [µM]	IC50, cell viability 72 h [34] [µM]	IC50, cell viability 72 h [35] [µM]
KNS-62 (Squamous Cell Lung Carcinoma)	> 0.001	> 10	> 1	> 10	> 2	> 20	> 0.3	> 10	0.632	> 1	0.273	> 1	> 1	> 10	0.342	> 10	> 10	> 10	> 3	> 3	> 10	> 10	4.14	> 1	> 10	> 10	0.0533	> 10	> 0.3	6.59	> 10	> 1	> 10	> 10	0.276
L-363 (Plasma Cell Myeloma)	> 0.001	8.5	0.134	> 10	> 2	> 20	> 0.3	> 10	0.381	0.694	0.00531	> 1	> 1	> 10	0.00532	2.77	9.12	> 10	> 3	0.231	> 10	> 10	> 5	> 1	1.22	> 10	> 0.3	> 10	0.258	> 10	> 10	> 1	> 10	> 10	> 1
MDA-MB-175-VII (Breast Carcinoma)	> 0.001	3.99	> 1	> 10	> 2	> 20	> 0.3	> 10	> 1	> 1	> 3	> 1	> 1	> 10	> 1	> 10	1.79	> 10	> 3	> 3	> 10	1.15	0.794	> 1	> 10	> 10	0.11	> 10	> 0.3	4.36	> 10	> 1	0.514	> 10	0.463
MG-63 (Osteosarcoma)	> 0.001	> 10	> 1	> 10	0.354	> 20	> 0.3	> 10	0.256	> 1	0.00823	> 1	> 1	6.32	0.0727	> 10	1.77	7.07	> 3	2.81	> 10	> 10	4.71	> 1	> 10	> 10	0.0108	2.03	0.0473	6.89	> 10	> 1	> 10	> 10	> 1
MRK-nu-1 (Breast Carcinoma)	> 0.001	> 10	0.0467	> 10	> 2	18.4	> 0.3	6.13	> 1	> 1	0.00468	0.629	0.816	> 10	0.22	9.31	> 10	> 10	> 3	1.66	> 10	> 10	> 5	> 1	> 10	> 10	0.0352	3.63	0.0957	> 10	> 10	> 1	> 10	> 10	> 1
